Data as given in patent publication US20050261298A1, “Methods of treating conditions associated with an Edg-7 receptor” (priority 2002, published 2005).

Assays:
[1] = target: T1, Edg-2 (Homo sapiens, UniProt Q92633); assay: Calcium mobilization assay (FLIPR), inhibition of LPA-stimulated calcium increase; type: cell-based; details: HTC cells expressing Edg-2
T1 construct: expressed in transfected cells; host or cells: HTC rat hepatoma cells

[2] = target: Edg-4 (Homo sapiens, UniProt Q9HBW0); assay: as above; type: cell-based; details: HTC cells expressing Edg-4
[3] = target: T2, Edg-5 (Homo sapiens, UniProt O95136); assay: Calcium mobilization assay (FLIPR), inhibition of S1P-stimulated calcium increase; type: cell-based; details: HTC cells expressing Edg-5
T2 construct: expressed in transfected cells; host or cells: HTC rat hepatoma cells

[4] = target: T3, Edg-6 (Homo sapiens, UniProt O95977); assay: as above; type: cell-based; details: HTC cells expressing Edg-6
T3 construct: expressed in transfected cells; host or cells: HTC rat hepatoma cells
T3 sequence (O95977 1-384): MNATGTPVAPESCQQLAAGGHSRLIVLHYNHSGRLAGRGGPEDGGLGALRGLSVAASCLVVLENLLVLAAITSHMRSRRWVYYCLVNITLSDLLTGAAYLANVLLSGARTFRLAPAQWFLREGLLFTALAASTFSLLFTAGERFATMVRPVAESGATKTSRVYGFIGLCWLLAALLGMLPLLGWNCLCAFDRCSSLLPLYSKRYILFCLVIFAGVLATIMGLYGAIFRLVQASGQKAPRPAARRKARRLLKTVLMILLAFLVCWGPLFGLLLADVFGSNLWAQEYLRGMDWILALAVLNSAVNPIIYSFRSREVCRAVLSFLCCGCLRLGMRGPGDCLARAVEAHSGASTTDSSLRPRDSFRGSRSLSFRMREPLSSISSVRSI

[5] = target: T4, human Edg 7 receptors (Homo sapiens, UniProt Q9UBY5); assay: Calcium mobilization assay (FLIPR), inhibition of LPA response; type: cell-based
T4 construct: expressed in transfected cells
T4 sequence (Q9UBY5 1-353): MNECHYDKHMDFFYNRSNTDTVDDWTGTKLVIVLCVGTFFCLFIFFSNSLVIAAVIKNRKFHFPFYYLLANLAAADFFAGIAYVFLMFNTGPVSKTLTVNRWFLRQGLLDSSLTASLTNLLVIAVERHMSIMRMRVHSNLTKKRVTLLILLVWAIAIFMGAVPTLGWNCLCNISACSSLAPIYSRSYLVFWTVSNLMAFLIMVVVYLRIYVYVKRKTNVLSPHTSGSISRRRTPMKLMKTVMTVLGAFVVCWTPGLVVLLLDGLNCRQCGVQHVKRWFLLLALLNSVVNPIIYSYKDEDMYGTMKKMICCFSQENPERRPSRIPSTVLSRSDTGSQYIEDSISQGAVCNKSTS
Method: The compounds were tested in HTC cells expressing human Edg 7 receptors. […] The compounds are tested in this recombinant system first, and subsequently tested in cell lines expressing Edg-7 (in addition to other Edg receptors).
The radioligand binding assays were conducted as described in Section 6.15 (Example 15).
LPA receptors such as Edg-7, couple to calcium effector pathways, and result in increases in intracellular calcium following receptor activation (An, 1998, J. Cell. Biochem Supp. 30-31:147-157). This biological response lends itself to a very efficient, high-throughput screen using a Fluorescence Imaging Plate Reader (FLIPR; Molecular Devices, Sunnyvale, Calif.). The FLIPR system is a real-time, cell-based assay system with continuous fluorescence detection using a cooled CCD camera. The FLIPR system was used to developing an Edg-7 receptor screen. Rat hepatoma cells stably expressing Edg-7 receptor were plated on 384-well plates and loaded with a calcium dye loading kit (Molecular Devices, Sunnyvale, Calif.) for 1 hour at room temperature. Cells were then placed on the FLIPR^384 (Molecular Devices, Sunnyvale, Calif.) and excited by an argon laser at […]. The data for the entire 384-well plate was updated every second. An integrated robotic pipettor allowed for simultaneous compound addition into each individual well in the plate

[6] = test system: Adrenergic α1, Non-Selective; assay: Radioligand binding assay, 3H Prazosin; parameters: species or system Wistar Rat; details: significance criteria ≧50% of max stimulation or inhibition
Method: (§1) In order to test the selectivity of compounds, various enzyme assays as well as radioligand binding assays were performed using numerous non-Edg receptor targets as listed below.
(§2) A radioligand binding assay was performed using adrenergic α1 according to the method of Greengrass and Bremner 1979, Eur. J. Pharmacol. 55:323-326. A radioligand binding assay was performed using adrenergic α2 according to the method of Boyajian and Leslie, 1987, J. Pharmacol. Exp. Ther. 241:1092-1098. A radioligand binding assay was performed using adrenergic β according to the method of Feve et al., 1994, Proc. Natl. Acad. Sci. USA 91:5677-5681. A radioligand binding assay was performed using angiotensin AT2 according to the method of Whitebread et al., 1991, Biochem. Biophys. Res. Comm. 181:1365-1371. A radioligand binding assay was performed using calcium channel Type L, dihydropyridine according to the method of Ehlert et al., 1982, Life Sci. 30:2191-2202. A radioligand binding assay was performed using dopamine D2L according to the method of Bunzo et al., 1988, Nature 336:783-787. A radioligand binding assay was performed using endothelin ETA according to the method of Mihara et al., 1994, J. Pharmacol. Exp Ther. 268:1122-1127. A radioligand binding assay was performed using histamine H1 Central according to the method of Hill et al., 1978, J. Neurochem. 31:997-1004. […]

[7] = test system: Adrenergic β; assay: Radioligand binding assay, 3H Dihydroaplenolol; parameters: species or system Wistar rat; details: significance criteria ≧50% of max stimulation or inhibition
Method: as §1, §2

[8] = test system: Calcium Channel Type L, Dihydropyridine; assay: Radioligand binding assay, 3H Nitrendipine; parameters: species or system Wistar Rat; details: significance criteria ≧50% of max stimulation or inhibition
Method: as §1, §2

[9] = target: T5, Histamine H1, Central (Cavia porcellus, UniProt P31389); assay: Radioligand binding assay, 3H Pyrilamine; parameters: species or system Guinea pig; details: significance criteria ≧50% of max stimulation or inhibition
T5 construct: Source: Guinea pig cerebellum; from tissue; host or cells: guinea pig cerebellum
Method: as §1, §2

[10] = concentrations as high as 20 µM

T2 sequence (O95136 whole entry): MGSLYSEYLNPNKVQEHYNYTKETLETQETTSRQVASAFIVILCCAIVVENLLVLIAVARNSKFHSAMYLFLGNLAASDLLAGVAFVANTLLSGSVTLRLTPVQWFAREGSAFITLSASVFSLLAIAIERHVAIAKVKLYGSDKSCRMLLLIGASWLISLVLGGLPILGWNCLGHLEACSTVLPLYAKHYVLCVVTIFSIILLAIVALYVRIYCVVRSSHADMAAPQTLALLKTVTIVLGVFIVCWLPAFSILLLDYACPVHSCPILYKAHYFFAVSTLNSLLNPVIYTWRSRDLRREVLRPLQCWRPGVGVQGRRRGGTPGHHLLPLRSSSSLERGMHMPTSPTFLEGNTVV
Sequence of Edg-4 (Q9HBW0 1-344 limits assumed): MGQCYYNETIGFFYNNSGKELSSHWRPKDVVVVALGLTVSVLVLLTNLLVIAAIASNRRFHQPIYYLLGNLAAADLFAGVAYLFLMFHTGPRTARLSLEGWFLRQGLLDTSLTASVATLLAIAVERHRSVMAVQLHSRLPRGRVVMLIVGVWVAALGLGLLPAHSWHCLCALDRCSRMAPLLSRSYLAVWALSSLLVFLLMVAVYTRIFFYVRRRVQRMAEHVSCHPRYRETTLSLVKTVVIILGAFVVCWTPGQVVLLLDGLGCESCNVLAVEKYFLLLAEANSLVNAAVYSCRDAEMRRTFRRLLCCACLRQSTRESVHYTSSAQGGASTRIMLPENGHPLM
T1 sequence (Q92633 whole entry): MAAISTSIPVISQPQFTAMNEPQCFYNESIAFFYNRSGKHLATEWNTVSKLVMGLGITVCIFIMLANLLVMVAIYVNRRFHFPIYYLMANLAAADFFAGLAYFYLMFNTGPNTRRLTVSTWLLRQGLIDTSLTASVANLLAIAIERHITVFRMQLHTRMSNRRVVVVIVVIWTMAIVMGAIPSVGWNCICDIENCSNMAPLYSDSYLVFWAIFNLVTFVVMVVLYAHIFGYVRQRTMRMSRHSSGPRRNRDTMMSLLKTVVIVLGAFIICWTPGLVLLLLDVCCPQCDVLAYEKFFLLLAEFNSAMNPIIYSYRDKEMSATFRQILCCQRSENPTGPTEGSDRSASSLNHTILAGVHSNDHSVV
T5 sequence (P31389 whole entry): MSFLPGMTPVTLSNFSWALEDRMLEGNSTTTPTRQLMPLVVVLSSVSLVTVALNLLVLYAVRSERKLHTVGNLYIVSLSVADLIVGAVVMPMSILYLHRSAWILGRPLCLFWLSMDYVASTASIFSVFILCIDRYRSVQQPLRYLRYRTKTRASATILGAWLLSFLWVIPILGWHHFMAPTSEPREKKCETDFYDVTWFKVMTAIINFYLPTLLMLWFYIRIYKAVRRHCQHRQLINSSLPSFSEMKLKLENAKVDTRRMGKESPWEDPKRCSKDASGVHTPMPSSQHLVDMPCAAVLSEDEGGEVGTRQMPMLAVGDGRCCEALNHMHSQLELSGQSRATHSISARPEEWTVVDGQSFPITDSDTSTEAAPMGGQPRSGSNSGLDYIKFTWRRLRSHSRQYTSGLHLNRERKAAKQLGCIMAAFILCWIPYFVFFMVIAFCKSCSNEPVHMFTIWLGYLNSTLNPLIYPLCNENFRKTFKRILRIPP

Compound: CCOC(=O)c1c(NC(=O)NS(=O)(=O)c2ccccc2Cl)sc2c1CCCC2 [Compound 101]
- IC50 [1]: > 20 µM
- inhibition of LPA-stimulated calcium increases, Edg-2 [1, 10]: did not inhibit
- IC50 [2]: > 20 µM
- inhibition of LPA-stimulated calcium increases, Edg-4 [2, 10]: did not inhibit
- IC50 [3]: > 20 µM
- inhibition of S1P-stimulated calcium increases, Edg-5 [3, 10]: did not inhibit
- IC50 [4]: > 20 µM
- inhibition of S1P-stimulated calcium increases, Edg-6 [4, 10]: did not inhibit
- selective inhibition of the Edg-7 receptor (FIG. 1, FIG. 2) ([5]; HTC cells expressing Edg-7): specifically inhibit
- IC50 ([5]; HTC cells expressing human Edg 7): 1.59 µM
- Fold Selectivity ([5]; inhibitory selectivity for Edg-7 relative to other Edg receptors): >12.6 Fold
- activity in radioligand binding assay, Adrenergic Alpha 1, non-selective [6]: no significant activity
- activity in radioligand binding assay, Adrenergic Beta, non-selective [7]: no significant activity
- activity in radioligand binding assay, Calcium Channels Type L, DHP [8]: no significant activity
- activity in radioligand binding assay, H1 central [9]: no significant activity
- melting point: 222 to 225 °C
